IC50 data for five compounds are collected here from US12479850B2, “Compound having Axl and c-Met kinase inhibitory activity, preparation thereof and application thereof” (Shanghai Institute of Materia Medica, Chinese Academy of …, priority 2019, dated 2025).

One experiment concerns MKN45 cells. In words: MKN45 cell proliferation assay (SRB). It is filed as cell-based. Conditions: Homo sapiens, MKN-45, 72 hours, read-out: IC50 value of MKN45 cell proliferation inhibition. An excerpt: 2. MKN45 Cell Proliferation Effect Assay
MKN45 is a gastric cancer cell line. MET gene amplification leads to continuous activation of Met cell line, which is a c-Met-dependent tumor cell line.
The inhibitory effect of the compound on the proliferation of MKN45 cells was detected by sulforhodamine B (SRB) protein staining method. The specific steps were as follows: MKN45 cells in the logarithmic growth phase are inoculated into a 96-well culture plate at an appropriate density. After being cultured overnight, compounds of different concentrations were added for 72 hours. Three duplicate wells for each concentration, and a solvent control group (Negative control) were set. After the action was over, the culture solution was discarded, 10% (w/v) trichloroacetic acid (100 μL/well) was added, and fixed at 4° C. for 1 hour, then washed with distilled water for five times. After drying at room temperature, 100 μL of SRB solution was added to each well, incubated and dyed at room temperature for 15 min, washed off the unbound SRB with 1% glacial acetic acid. After drying at room temperature, 10 mM Tris solution was added to each well, and full wavelength microplate SpectraMax 190 was used to test OD value at the wavelength of 515 nm. […]

In the next experiment the test system is BaF3-TEL-AXL cells. In words: BaF3-TEL-AXL cell proliferation assay (CCK-8). It is filed as cell-based. The following applies: 72 hours, read-out: IC50 value on BaF3-TEL-AXL cell proliferation inhibition. An excerpt:
1. BaF3-TEL-AXL Cell Proliferation Effect Assay
TEL-AXL fusion protein in BaF3-TEL-AXL cells was expressed in the cytoplasm and was an Axl-dependent sensitive cell line.
The inhibitory effect of the compound on the proliferation of BaF3-TEL-AXL cells was detected by the CCK-8 Cell Counting Kit (Dojindo). The specific steps were as follows: the BaF3-TEL-AXL cells in the logarithmic growth phase were inoculated into the 96-well culture plate at a appropriate density, after being cultured overnight, different concentrations of compounds were added for 72 hours, and a solvent control group (negative control) was set. After the compound had acted on the cells for 72 hours, the effect of the compound on cell proliferation was detected by CCK-8 cell counting kit (Dojindo), 10 μL CCK-8 reagent was added to each well, placed in an incubator at 37° C. for 2-4 hours, and the full wavelength microplate reader SpectraMax 190 was used to read, and the measurement wavelength was 450 nm.
The inhibition rate of the compound on the growth of tumor cells was calculated by the following formula (%): Inhibition rate (%)=(OD of control well−OD of administration well)/OD of control well×100%

Experiment [1] deals with T1, Axl kinase domain recombinant protein (Homo sapiens, UniProt P30530).
T1 sequence (P30530 536-807 limits assumed): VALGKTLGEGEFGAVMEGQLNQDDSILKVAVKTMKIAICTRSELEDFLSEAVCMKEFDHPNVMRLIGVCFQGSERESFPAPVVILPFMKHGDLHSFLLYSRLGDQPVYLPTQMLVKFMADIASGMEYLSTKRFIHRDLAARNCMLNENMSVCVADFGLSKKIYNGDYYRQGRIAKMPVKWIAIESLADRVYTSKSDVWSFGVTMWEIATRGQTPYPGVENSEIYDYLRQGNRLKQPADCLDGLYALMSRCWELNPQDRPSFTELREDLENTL
In words: ELISA kinase activity assay, Axl. (An ELISA detects its analyte on a solid surface through an enzyme-linked reagent.)

Experiment [2] addresses c-Met kinase domain recombinant protein (Homo sapiens, UniProt P08581). In words: ELISA kinase activity assay, c-Met.

c-Met kinase domain recombinant protein, sequence (P08581 1078-1345 limits assumed): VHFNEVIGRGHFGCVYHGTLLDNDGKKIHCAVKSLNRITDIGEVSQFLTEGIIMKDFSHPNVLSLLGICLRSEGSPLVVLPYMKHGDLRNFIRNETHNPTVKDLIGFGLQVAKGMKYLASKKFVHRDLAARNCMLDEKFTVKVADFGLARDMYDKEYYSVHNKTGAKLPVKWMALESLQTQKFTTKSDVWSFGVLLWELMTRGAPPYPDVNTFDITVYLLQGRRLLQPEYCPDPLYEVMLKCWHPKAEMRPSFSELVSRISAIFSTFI

Take `CC(C)n1cc(C(=O)Nc2ccc(Oc3cc4cnn(C)c4cc3-c3cn[nH]c3)c(F)c2)c(=O)n(-c2ccc(F)cc2)c1=O` [No. 50, N-(3-fluoro-4-((1-methyl-6-(1H-pyrazol-4-yl)-1H-indazol-5-yl)oxy)phenyl)-3-(4-fluorophenyl)-1-isopropyl-2,4-dioxo-1,2,3,4-tetrahydropyrimidin-5-carboxamide]: the IC50 in the experiment with MKN45 cells was less than 0.1 µM; with BaF3-TEL-AXL cells, less than 0.01 µM; in experiment [1], less than 0.01 µM; in experiment [2], 0.01 to 0.1 µM.
On to `CC(C)n1cc(C(=O)Nc2ccc(Oc3ccnc4[nH]ccc34)c(F)c2)c(=O)n(-c2ccc(F)cc2)c1=O` [No. 41, N-(4-((1H-pyrrolo[2,3-b]pyridin-4-yl)oxy)-3-fluorophenyl)-3-(4-fluorophenyl)-1-isopropyl-2,4-dioxo-1,2,3,4-tetrahydropyrimidin-5-carboxamide], for which the IC50 with MKN45 cells was less than 0.1 µM; in the experiment on BaF3-TEL-AXL cells it was less than 0.01 µM; in experiment [1], less than 0.01 µM; in experiment [2], less than 0.01 µM.
Consider `Cn1cc(-c2cc(Oc3ccc(NC(=O)c4cn(CC5CCCC5)c(=O)n(-c5ccc(F)cc5)c4=O)cc3F)ccn2)cn1` [No. 6, 1-(cyclopentylmethyl)-N-(3-fluoro-4-((2-(1-methyl-1H-pyrazol-4-yl)pyridin-4-yl)oxy)phenyl)-3-(4-fluorophenyl)-2,4-dioxo-1,2,3,4-tetrahydropyrimidin-5-carboxamide], for which the IC50 in experiment [1] and in experiment [2] was 0.01 to 0.1 µM throughout.
On to `CC(C)n1cc(C(=O)Nc2ccc(Oc3ncnc4[nH]cc(-c5ccccc5)c34)c(F)c2)c(=O)n(-c2ccc(F)cc2)c1=O` [No. 44, N-(3-fluoro-4-((5-phenyl-7H-pyrrolo[2,3-d]pyrimidin-4-yl)oxy)phenyl)-3-(4-fluorophenyl)-1-isopropyl-2,4-dioxo-1,2,3,4-tetrahydropyrimidin-5-carboxamide], for which the IC50 in experiment [1] was less than 0.01 µM; in experiment [2] it was 0.01 to 0.1 µM.
On the same counts, the results for `CCCn1cc(C(=O)Nc2ccc(Oc3ccnc(-c4cnn(C)c4)c3)c(F)c2)c(=O)n(-c2ccc(F)cc2)c1=O` [No. 4, N-(3-fluoro-4-((2-(1-methyl-1H-pyrazol-4-yl)pyridin-4-yl)oxy)phenyl)-3-(4-fluorophenyl)-1-propyl-2,4-dioxo-1,2,3,4-tetrahydropyrimidin-5-carboxamide] are less than 0.01 µM and less than 0.01 µM.
